Assay results as given in patent US20050233984A1, “Composition for preventing or treating degenerative brain diseases comprising a hydrolysate of ginsenosides” (Digital Biotech Co., Ltd., priority 2002, published 2005).

Assays:
[1] = system: synaptophysin; test: Synaptic density: synaptophysin in hippocampus and cortex by Western blotting; format: in vivo; conditions: 0.5 mg/kg intraperitoneally once a day for 4 days, C57BL/6 mice
Protocol: 1 mg/kg of ginsenoside Rc or Mc, or compound Y or K, or 0.5 mg/kg of PPD or PPT was intraperitoneally administered to C57BL/6 mice (9-week old, weight: about 25 g) once a day for 4 days. Then, the brain of the mouse was removed and the hippocampus and cortex were separated therefrom. The amounts of synaptophysin, a protein marker of synaptic vesicle, in the hippocampus and cortex were quantified with Western blotting and an image analysis with a densitometer (LAS100, Fujifilm, Japan) employing a synaptophysin-specific antibody (Cat #902 314, Boehringer Mannheim, Germany).

[2] = system: α-secretase; test: sAPPα secretion by Western blotting in B103 cells; format: cell-based; conditions: 1 μM, 18 hours, compared with untreated control, FIG. 5
Protocol: In order to examine whether the ginseng-originated compounds can inhibit beta-amyloid production, the activity of α-secretase, which cleaves beta-amyloid, was examined.
1×10^6 cells of neuroblastoma B103 cell line (donated by Dr. David Schubert of the Salk Institute, USA), which secretes APP (amyloid precursor protein), were plated on a […] with 100 μl of DMEM medium containing 10% FBS (Fetal Bovine Serum) and cultured overnight at […] under 8% CO2. The medium was replaced with serum-free DMEM (Gibco, USA), and PPD, PPT or PDBu (phorbol-12, 13-dibutyrate: Sigma Co., USA) was added thereto at a concentration of 1 μM each. The cells were cultured further for 18 hours. The supernatant was isolated from each culture solution and concentrated through a concentration filter (viva spin centricon, obtained from: Vivascience, Binbrook Hill, Binbrook, England). The concentrate was prepared to have a protein concentration of 2 μg/ml and then subjected to electrophoresis on a 8% SDS-PAGE gel.
Protein bands on the gel were transferred to PVDF (polyvinylidene fluoride) membrane (Millipore Co., Bedford, Mass., USA) and blocked with 5% skim milk. The bands on PVDF were reacted with sAPPα-specific antibody 6E10 (1:2000 dilution, Cat. No. 320-05, Senetek, Maryland heights, Mo., USA) at room temperature for 2 hours. […] The protein bands were then quantified via image analysis.

[3] = system: neuroblastoma B103 cell line; test: MTT test: preventing the toxicity of beta-amyloid; format: cell-based; conditions: for Survival rate (%): B103 cells, beta-amyloid-only control = 100%
Protocol: In order to examine the activities of the compounds prepared in the Reference Example in preventing the toxicity of beta-amyloid, the MTT analysis (Gillardon, F. et al., Brain Research. No. 6: pp. 169-172 (1996)) was carried out as follows.
5×10^3 cells of neuroblastoma B103 cell line (donated by Dr. David Schubert of the Salk Institute, USA) were placed in each well of a 96-well plate with 100 μl of DMEM (Dulbecco's Minimal Eagle's Medium) containing 10% fetal bovine serum (FBS), and cultured at 37° C. under 8% CO2 for 1 day. […] The cells were cultured at 37° C. for 18 hours, treated with 15 μl of MTT solution [10 mg/ml solution of 3-(4,5-dimethyl-2-thiazolyl)-2,5-diphenyl-2H-tetrazolium bromide in phosphate buffered saline (PBS)], and allowed to react at 37° C. for 3 to 4 hours. 100 μl of lysis buffer (10% SDS, 50% dimethylformamide, pH 4.7) was added to the wells, and the cells were cultured overnight at room temperature and relative humidity of 90%. Optical density (OD) of each well was measured at […] and 630 nm, respectively, using a scanning multiwell spectrophotometer, and then the OD value at 630 nm was subtracted from that at 570 nm.
Setting the survival rate of the control group treated only with beta-amyloid as 100%, relative survival rates of the experimental groups treated with compound Y, ginsenosides Mc and Rc, PPD and PPT, respectively, were calculated, and the results are shown in Table 2 and FIG. 1. The obtained values were statistically significant.
When the same procedure as above was repeated except that the cells were treated simultaneously with the test compound and beta-amyloid, or treated with the test compound one hour after the beta-amyloid treatment, the results were almost the same as above.
Further, in order to assess the concentration-dependent activity of a test compound, the above procedure was repeated using PPT at concentrations ranging from […].

[4] = system: neuroblastoma B103 cell line; test: MTT test: anti-oxidative effect, H2O2 in place of beta-amyloid; format: cell-based; conditions: B103 cells, H2O2-only control = 100%
Protocol: 5×10^3 cells of neuroblastoma B103 cell line (donated by Dr. David Schubert of the Salk Institute, USA) were placed in each well of a 96-well plate with 100 μl of DMEM (Dulbecco's Minimal Eagle's Medium) containing 10% fetal bovine serum (FBS), and cultured at 37° C. under 8% CO2 for 1 day. After changing the medium to serum-free DMEM, the cells were treated with various concentrations of test compounds and, 1 hour later, with 25 μM of beta-amyloid (25-35 peptide; US peptide, CA, USA). The cells were cultured at 37° C. for 18 hours, treated with 15 μl of MTT solution [10 mg/ml solution of 3-(4,5-dimethyl-2-thiazolyl)-2,5-diphenyl-2H-tetrazolium bromide in phosphate buffered saline (PBS)], and allowed to react at 37° C. for 3 to 4 hours. 100 μl of lysis buffer (10% SDS, 50% dimethylformamide, pH 4.7) was added to the wells, and the cells were cultured overnight at room temperature and relative humidity of 90%. Optical density (OD) of each well was measured at […] and 630 nm, respectively, using a scanning multiwell spectrophotometer, and then the OD value at 630 nm was subtracted from that at 570 nm.
In order to examine whether compounds originating from ginseng can block oxidative stress, the procedure of Example 1 was repeated except for using 1 μM of H2O2 in place of beta-amyloid, and the survival rates of the neural cells were determined.

[5] = test compound 1 μM + 25 μM beta-amyloid (25-35), 18 hours
[6] = test compound 1 μM alone, without beta-amyloid
[7] = test compound 1 μM alone, without H2O2

Row | SMILES | amount of synaptophysin in cortex [1] | amount of synaptophysin in hippocampus [1] | sAPPα secretion level [2] | Survival rate (%) [3, 5] [%] | Survival rate (%) [3, 6] [%] | Survival rate (%) ([4]; test compound 1 μM + 1 μM H2O2) | Survival rate (%) [4, 7] [%] | concentration-dependent inhibitory activity against beta-amyloid toxicity (in words) ([3]; FIG. 2, PPT concentration series) | Survival rate (%) ([3]; test compound 10 μM + 25 μM beta-amyloid (25-35), 18 hours) | Survival rate (%) ([3]; test compound 10 μM alone, without beta-amyloid) | Survival rate (%) ([4]; test compound 10 μM + 1 μM H2O2) | Survival rate (%) ([4]; test compound 10 μM alone, without H2O2)
1 | CC(C)=CCCC(C)(O)[C@H]1CC[C@]2(C)[C@@H]1[C@H](O)C[C@@H]1[C@@]3(C)CC[C@H](O)C(C)(C)[C@@H]3CC[C@]12C (stereo in doubt) [PPD, protopanaxadiol] | no change | significantly increased | higher | 106.7 ± 6.9 | 137.7 ± 4.8 | 219.6 ± 3.0 | 494.3 ± 3.5 |  |  |  |  | 
2 | CC(C)=CCC[C@](C)(O)[C@H]1CC[C@]2(C)[C@@H]1[C@H](O)C[C@@H]1[C@@]3(C)CC[C@H](O)C(C)(C)[C@@H]3[C@@H](O)C[C@]12C [PPT, protopanaxatriol] | no change | significantly increased | higher | 106.6 ± 1.2 | 157.4 ± 3.3 | 381.3 ± 0.9 | 516.1 ± 1.6 | began to show its inhibitory activity at the μM level | 119.7 ± 8.5 | 140.3 ± 6.4 | 457.8 ± 2.5 | 516.5 ± 1.2
